{
  "source": "patent US20170079966A1",
  "about": "“INHIBITION OF TUMOR CELL INTERACTIONS WITH THE MICROENVIRONMENT RESULTING IN A REDUCTION IN TUMOR GROWTH AND DISEASE PROGRESSION” (Deciphera Pharmaceuticals, LLC, priority 2014, published 2017)",
  "key": {"SK-MEL-28 cells": {"system": "SK-MEL-28 cells", "assay": "HGF-stimulated melanoma proliferation cell assay", "type": "cell-based", "settings": "Homo sapiens, 72 h", "procedure": "SK-MEL-28 cells were added to 96-well plates (2,500 cells/well). Effects on cell proliferation were assessed by incubation of SK-MEL-28 cells in complete media, media containing 50 ng/mL HGF, or media mixed 1:1 with MRC-5 fibroblast-conditioned media. Plates were incubated for 72 h."}, "[1]": {"system": "SK-MEL-28 and SK-MEL-5 cells (pERK, pMET, AKT)", "assay": "HGF-stimulated melanoma cell signal transduction assay", "type": "cell-based", "settings": "50 nM", "procedure": "SK-MEL-5 and SK-MEL-28 cells were added to 12-well plates at 450,000 and 250,000 cells/well, respectively, and incubated overnight. […] Cells were then stimulated with 50 ng/mL HGF for 1 hr. Antibodies were obtained from Cell Signaling Technology."}, "PyMT mammary tumor": {"system": "PyMT mammary tumor", "assay": "PyMT syngeneic breast cancer model", "type": "in vivo, mice", "procedure": "Female FVB/NJ mice were implanted in the 4th mammary fat pad with one million cells that had been dissociated from tumor fragments from MMTV-PyMT donor mice. […] Mice (n=10/group) were dosed for three weeks, then, primary tumor and lungs were collected and fixed. Lung sections were stained with H&E at Premier Laboratory. Lung metastases (≧10 cells) were counted manually via microscopy. Data were analyzed via one-way analysis of variance (ANOVA), with post-hoc analysis by the method of Holm-Sidak. For analysis of TIE2-positive macrophages, tumor sections were stained with TIE2 and CD31 antibodies at Premier Laboratory. The density of TIE2-positive cells at the stroma/tumor boundary in each tumor was scored using 0=no staining, 1=low, 2=medium, and 3=high."}, "U87-MG xenograft glioma": {"system": "U87-MG xenograft glioma", "assay": "Orthotopic U87-MG xenograft efficacy model (BLI)", "type": "in vivo, mice", "settings": "after two weeks of treatment; bevacizumab 5 mg/kg IP every three days; Compound 1 10 mg/kg BID", "procedure": "Protocol for in vivo xenograft efficacy study. […] Treatments began on Day 31.\nThe tumor cells were injected intracerebroventricularly (ICV) and tumor growth was monitored in vivo by quantitation of luciferase-mediated BLI."}, "[2]": {"system": "circulating TIE2+ and TIE2+/MET+ monocytes", "assay": "Flow cytometry of circulating TIE2/MET-expressing monocytes from U87-MG xenograft model", "type": "in vivo, mice", "settings": "single agents; after five weeks of treatment", "procedure": "Flow cytometry of circulating TIE2/MET-expressing monocytes from U87-MG xenograft model. Peripheral blood samples were fixed using Lyse/Fix buffer (BD Biosciences, San Jose, Calif.). BD Fc Block was added and cells were stained with CD11b-PECy7 and Gr1-APC antibodies (BD Pharmingen), and TIE2-PE and MET-FITC antibodies (eBioscience) or isotype controls. Data was collected on an Accuri C6 cytometer. Monocytes were gated using side and forward scatter.\nTo monitor these monocytes in the U87 survival model, peripheral monocytes were gated on CD11b+/Grl-surface markers and TIE2^+ and/or TIE2^+/MET^+ cells quantitated. In the U87 glioma survival study, we observed both of these TIE2^+ expressing monocyte populations in the circulation of vehicle-treated mice after five weeks of treatment. […] The lowered population of both of these TIE2^+ monocyte populations in the combination cohort was consistent with greater survival benefit (FIG. 6)."}, "GSC11 glioblastoma cells": {"system": "GSC11 glioblastoma cells", "assay": "GSC11 glioma stem cell patient-derived xenograft model (tumor volume, immunohistochemistry)", "type": "in vivo, mice", "procedure": "(§1) For the in vivo experiments, 4- to 6-week-old female nude mice that were strictly inbred at The University of Texas MD Anderson Cancer Center and maintained in the MD Anderson Veterinary in accordance with institutional guidelines were used. For the in vivo experiments, GSC11 (5×10^5) or GSC17 (5×10^4) glioblastoma cells were implanted intracranially into nude mice. […] Control mice for these cohorts were treated with phosphate-buffered saline by i.p. injection and/or with 0.4% HPMC vehicle by oral gavage. One cohort of 10 mice per group were treated continuously and followed for survival. A separate cohort of 9 mice per group were treated continuously until the designated time point, and the tumors from these mice were extracted at 3, 4, 5 weeks in GSC11 xenograft mice model and at 3.5, 4.5, 5.5 weeks in GSC17 xenograft mice model after the start of treatment.\n(§2) When the mice treated for the designated time period developed signs and symptoms of advanced tumors, they were euthanized, and their brains were removed, fixed in 4% formaldehyde for 24 hours, and embedded in paraffin. The tissues were then sectioned serially (4 μm) and stained with hematoxylin and eosin (Sigma-Aldrich). Tumor formation and phenotype were determined by histologic analysis of the hematoxylin- and eosin-stained sections. The tumor volume, greatest longitudinal diameter (length), and greatest transverse diameter (width) were measured using an external caliper and Adobe Illustrator software. The tumor volumes were calculated by the following formula: volume=½(length×width^2).\n(§3) For immunohistochemical analyses, the tissue sections were deparaffinized and subjected to graded rehydration. After blocking the tissue in 5% horse and goat serum and antigen retrieval solution (citrate buffer, pH 6.0), we incubated the tissue sections overnight at 4° C. with primary antibodies against Factor VIII (1:500; A0082, Dako) to assess microvessel formation, vimentin (1:100; M0725, Dako) to assess mesenchymal marker expression, F4/80 (1:50; 123102, BioLegend) to assess monocyte infiltration, nestin (1:300; Ab6142, Abcam) to assess glioma stem cell marker expression, HGF (1:200; LS-B4657, LSBio), and TIE2 (1:50; Santa Cruz Biotechnology) to assess TIE2-expressing monocyte infiltration. Texas red fluorescein isothiocyanate-conjugated secondary antibodies or anti-rat immunoglobulin G antibodies (Invitrogen) were used for 1 hour at room temperature.\n(§4) All statistical analyses were conducted with the GraphPad 6 (InStat) software for Windows 7. Survival analysis was conducted using the Kaplan-Meier method, and differences in survival between treatment groups were assessed using the log-rank test. All other comparisons were performed using an unpaired two-tailed Student t-test. Summary statistics for continuous data are expressed as the mean±standard error of the mean. P values less than 0.05 were considered statistically significant. The nestin staining was assessed using the Image-Pro Plus system version 7.0 (Media Cybernetics) in ×10 fields of at least three tumor samples per group with three to four different sections per tumor sample."}, "GSC17 glioblastoma cells": {"system": "GSC17 glioblastoma cells", "assay": "GSC17 glioma stem cell patient-derived xenograft model (tumor volume, immunohistochemistry)", "type": "in vivo, mice", "procedure": "as §1, §2, §3, §4"}},
  "note": "Where two headings read alike, the source gives them in different places.",
  "data": [
    {"compound": "CC(C)(C)c1nc(-c2cccc(NS(=O)(=O)c3c(F)cccc3F)c2F)c(-c2ccnc(N)n2)s1", "note": "[dabrafenib]", "values": [
      {"measurement": "IC50", "setting": "SK-MEL-28 cells; 50 ng/mL HGF or MRC-5 fibroblast-conditioned media, read-out: IC50, proliferation of SK-MEL-28 with HGF or fibroblast-conditioned media", "value": "> 10000", "unit": "nM"},
      {"measurement": "IC50", "setting": "SK-MEL-28 cells; complete media, read-out: IC50, proliferation of SK-MEL 28", "value": 10.6, "unit": "nM"},
      {"measurement": "Phosphorylation of ERK upon HGF stimulation", "setting": "[1]; 50 ng/mL HGF 1 hr", "value": "ERK remained fully phosphorylated"},
      {"measurement": "Phosphorylation of ERK", "setting": "[1]; no HGF", "value": "inhibited phosphorylation"}
    ]},
    {"compound": "CC(=O)O[C@H]1C(=O)[C@@]2(C)[C@H]([C@H](OC(=O)c3ccccc3)[C@]3(O)C[C@H](OC(=O)[C@H](O)[C@@H](NC(=O)c4ccccc4)c4ccccc4)C(C)=C1C3(C)C)[C@]1(OC(C)=O)CO[C@@H]1C[C@@H]2O", "note": "[paclitaxel, reference compound]", "values": [
      {"measurement": "Tumor growth inhibition (TGI)", "setting": "PyMT mammary tumor; after dosing for three weeks, paclitaxel 10 mg/kg i.v. every 5 days, Compound 1 15 mg/kg twice daily", "value": 42, "unit": "%"},
      {"measurement": "Reduction of TIE2 score (stromal density of TIE2+ cells)", "setting": "PyMT mammary tumor; same dosing", "value": "did not reduce"},
      {"measurement": "Reduction of lung metastases compared to controls", "setting": "PyMT mammary tumor; same dosing", "value": 64, "unit": "%"}
    ]},
    {"compound": "bevacizumab [reference compound]", "values": [
      {"measurement": "Decrease in BLI signal compared to vehicle", "setting": "U87-MG xenograft glioma", "value": 63, "unit": "%"},
      {"measurement": "Numbers of circulating TIE2+ and TIE2+/MET+ monocyte populations", "setting": "[2]", "value": "did not alter"},
      {"measurement": "Tumor volume at 3 weeks", "setting": "GSC11 glioblastoma cells; GSC11, bevacizumab 10 mg/kg i.p. twice per week, Compound 1 10 mg/kg oral twice daily", "value": "14.3±6.9", "unit": "mm^3"},
      {"measurement": "Tumor volume at 4 weeks", "setting": "GSC11 glioblastoma cells; GSC11, same dosing", "value": "30.7±4.2", "unit": "mm^3"},
      {"measurement": "Tumor volume at 5 weeks", "setting": "GSC11 glioblastoma cells; GSC11, same dosing", "value": "46.6±4.5", "unit": "mm^3"},
      {"measurement": "Factor VIII-positive area", "setting": "GSC11 glioblastoma cells; GSC11 model", "value": "3.3±1.1", "unit": "%"},
      {"measurement": "Nestin-positive area", "setting": "GSC11 glioblastoma cells; GSC11 xenograft mouse model", "value": "59.8±6.0", "unit": "%"},
      {"measurement": "Mesenchymal tumor marker vimentin / EMT (immunohistochemistry)", "setting": "GSC11 glioblastoma cells; GSC-11 glioma model", "value": "therapy-induced increase in EMT"},
      {"measurement": "Macrophage infiltration into tumor (F4/80 IHC staining)", "setting": "GSC11 glioblastoma cells; GSC-11 glioma xenograft model", "value": "stimulating the influx of tumor-promoting macrophages"},
      {"measurement": "Tumor volume at 3.5 weeks", "setting": "GSC17 glioblastoma cells; GSC17, bevacizumab 10 mg/kg i.p. twice per week, Compound 1 10 mg/kg oral twice daily", "value": "0.4±0.4", "unit": "mm^3"},
      {"measurement": "Tumor volume at 4.5 weeks", "setting": "GSC17 glioblastoma cells; GSC17, same dosing", "value": "0.05±0.03", "unit": "mm^3"},
      {"measurement": "Tumor volume at 5.5 weeks", "setting": "GSC17 glioblastoma cells; GSC17, same dosing", "value": "9.6±4.6", "unit": "mm^3"},
      {"measurement": "Factor VIII-positive area", "setting": "GSC17 glioblastoma cells; GSC17 xenograft mouse model", "value": "3.0±0.3", "unit": "%"},
      {"measurement": "Nestin-positive area", "setting": "GSC17 glioblastoma cells; GSC17 xenograft mouse model", "value": "20.6±2.7", "unit": "%"},
      {"measurement": "Mesenchymal tumor marker vimentin / EMT (immunohistochemistry)", "setting": "GSC17 glioblastoma cells; GSC-17 glioma model", "value": "therapy-induced increase in EMT"},
      {"measurement": "Tumor infiltration of TIE2-positive/F4/80-positive cells", "setting": "GSC17 glioblastoma cells; GSC-17 glioma xenograft model", "value": "increased"}
    ]}
  ]
}
